# Test results: ChEMBL document CHEMBL1151505, “Imino 1,2,3,4-tetrahydrocyclopent[b]indole carbamates as dual inhibitors of acetylcholinesterase and monoamine oxidase” (Bioorg Med Chem Lett, 1996)
# Where “and” joins values, the source holds several entries; their conditions need not be identical. Identical values can stand only once. Calls of active or inactive are those of the source. The rule behind the calls is not given here.
# How the values were obtained:
# [1] = target: T1, Amine oxidase [flavin-containing] B (Homo sapiens, UniProt P27338); assay: Compound was tested for inhibition of monoamine oxidase-B (MAO-B).
# T1 sequence (P27338 whole entry): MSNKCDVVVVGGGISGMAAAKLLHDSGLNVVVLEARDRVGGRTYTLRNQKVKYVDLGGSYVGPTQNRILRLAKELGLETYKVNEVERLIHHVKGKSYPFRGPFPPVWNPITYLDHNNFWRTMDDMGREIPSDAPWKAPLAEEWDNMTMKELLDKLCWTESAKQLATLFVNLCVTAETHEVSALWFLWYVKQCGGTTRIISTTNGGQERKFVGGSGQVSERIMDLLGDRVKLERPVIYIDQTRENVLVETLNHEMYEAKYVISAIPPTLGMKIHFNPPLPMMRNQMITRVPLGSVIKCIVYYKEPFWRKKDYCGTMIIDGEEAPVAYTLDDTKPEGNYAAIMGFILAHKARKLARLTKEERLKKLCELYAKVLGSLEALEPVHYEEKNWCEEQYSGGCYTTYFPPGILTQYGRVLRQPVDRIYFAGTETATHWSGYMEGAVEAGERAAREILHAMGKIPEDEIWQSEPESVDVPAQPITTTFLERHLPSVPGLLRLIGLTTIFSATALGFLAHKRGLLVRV
# [2] = target: T2, Amine oxidase [flavin-containing] A (Homo sapiens, UniProt P21397); assay: Compound was tested for inhibition of monoamine oxidase-A (MAO-A).
# T2 sequence (P21397 whole entry): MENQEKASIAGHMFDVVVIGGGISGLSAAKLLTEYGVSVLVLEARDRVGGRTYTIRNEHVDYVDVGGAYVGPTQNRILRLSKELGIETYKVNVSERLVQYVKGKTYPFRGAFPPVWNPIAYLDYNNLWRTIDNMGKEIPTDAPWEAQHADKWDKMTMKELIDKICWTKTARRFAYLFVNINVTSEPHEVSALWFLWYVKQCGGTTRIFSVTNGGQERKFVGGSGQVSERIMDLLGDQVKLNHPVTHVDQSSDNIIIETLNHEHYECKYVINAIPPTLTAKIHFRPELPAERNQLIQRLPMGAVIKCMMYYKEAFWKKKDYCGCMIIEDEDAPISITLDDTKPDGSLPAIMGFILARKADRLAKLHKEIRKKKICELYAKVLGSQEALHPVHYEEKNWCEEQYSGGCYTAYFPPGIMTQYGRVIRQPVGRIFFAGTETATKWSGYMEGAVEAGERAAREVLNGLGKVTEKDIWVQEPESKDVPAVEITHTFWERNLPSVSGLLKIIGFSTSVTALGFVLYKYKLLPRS
# Acetylcholinesterase [3] = target: T3, Acetylcholinesterase (Homo sapiens, UniProt P22303); assay: Inhibition of acetylcholinesterase.
# T3 sequence (P22303 whole entry): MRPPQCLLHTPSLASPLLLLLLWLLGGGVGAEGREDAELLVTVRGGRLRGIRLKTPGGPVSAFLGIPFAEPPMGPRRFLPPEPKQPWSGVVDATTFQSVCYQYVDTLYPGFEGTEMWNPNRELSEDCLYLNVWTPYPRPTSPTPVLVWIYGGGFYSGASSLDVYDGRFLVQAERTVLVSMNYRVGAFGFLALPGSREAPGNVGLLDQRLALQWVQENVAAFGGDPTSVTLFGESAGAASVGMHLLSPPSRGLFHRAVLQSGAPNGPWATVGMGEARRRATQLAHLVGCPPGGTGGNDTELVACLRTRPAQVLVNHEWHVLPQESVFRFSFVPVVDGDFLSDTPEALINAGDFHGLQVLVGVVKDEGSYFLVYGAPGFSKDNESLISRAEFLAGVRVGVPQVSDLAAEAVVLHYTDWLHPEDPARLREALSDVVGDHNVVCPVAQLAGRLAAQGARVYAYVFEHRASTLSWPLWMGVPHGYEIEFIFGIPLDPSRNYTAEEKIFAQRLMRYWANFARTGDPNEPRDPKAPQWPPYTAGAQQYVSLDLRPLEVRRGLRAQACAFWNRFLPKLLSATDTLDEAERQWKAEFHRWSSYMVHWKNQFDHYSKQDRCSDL
# [4] = target: T1, Amine oxidase [flavin-containing] B; assay: Compound was tested for inhibition of monoamine oxidase-B (MAO-B) at 10 mg/kg dose upon peroral administration in 1 hr time interval; format: organism-based; parameters: dose 10 mg/kg, route oral; settings: po
# [5] = target: T1, Amine oxidase [flavin-containing] B; assay: Compound was tested for inhibition of monoamine oxidase-B (MAO-B) at 10 mg/kg dose upon peroral administration in 4 hr time interval; format: organism-based; parameters: dose 10 mg/kg, route oral; settings: po
# [6] = target: T1, Amine oxidase [flavin-containing] B; assay: Compound was tested for inhibition of monoamine oxidase-B (MAO-B) at 10 mg/kg dose upon peroral administration in 24 hr time interval; format: organism-based; parameters: dose 10 mg/kg, route oral; settings: po
# [7] = target: T2, Amine oxidase [flavin-containing] A; assay: Compound was tested for inhibition of monoamine oxidase-A (MAO-A) at 10 mg/kg dose upon peroral administration in 48 hr time interval; format: organism-based; parameters: dose 10 mg/kg, route oral; settings: po
# [8] = target: T2, Amine oxidase [flavin-containing] A; assay: Compound was tested for inhibition of monoamine oxidase-A (MAO-A) at 10 mg/kg dose upon peroral administration in 4 hr time interval; format: organism-based; parameters: dose 10 mg/kg, route oral; settings: po
# [9] = target: T2, Amine oxidase [flavin-containing] A; assay: Compound was tested for inhibition of monoamine oxidase-A (MAO-A) at 10 mg/kg dose upon peroral administration in 24 hr time interval; format: organism-based; parameters: dose 10 mg/kg, route oral; settings: po
# [10] = target: T1, Amine oxidase [flavin-containing] B; assay: Compound was tested for inhibition of monoamine oxidase-B (MAO-B) at 10 mg/kg dose upon peroral administration in 48 hr time interval; format: organism-based; parameters: dose 10 mg/kg, route oral; settings: po
# [11] = target: T2, Amine oxidase [flavin-containing] A; assay: Compound was tested for inhibition of monoamine oxidase-A (MAO-A) at 10 mg/kg dose upon peroral administration in 1 hr time interval; format: organism-based; parameters: dose 10 mg/kg, route oral; settings: po
# Acetylcholinesterase [12] = target: T3, Acetylcholinesterase; settings: 10 mg/kg
# Description: Compound was tested for inhibition of acetylcholinesterase at 10 mg/kg dose upon peroral administration in 24 hr time interval
# Acetylcholinesterase [13] = target: T3, Acetylcholinesterase; settings: 10 mg/kg; remark: listed apart in the source
# Description: Compound was tested for inhibition of acetylcholinesterase at 10 mg/kg dose upon peroral administration in 4 hr time interval
# Acetylcholinesterase [14] = target: T3, Acetylcholinesterase; settings: 10 mg/kg; remark: listed apart in the source
# Description: Compound was tested for inhibition of acetylcholinesterase at 10 mg/kg dose upon peroral administration in 0.5 hr time interval
# Acetylcholinesterase [15] = target: T3, Acetylcholinesterase; settings: 10 mg/kg; remark: listed apart in the source
# Description: Compound was tested for inhibition of acetylcholinesterase at 10 mg/kg dose upon peroral administration in 1 hr time interval
# [16] = target: T2, Amine oxidase [flavin-containing] A; assay: Compound was tested for inhibition of monoamine oxidase-A (MAO-A) at 50 mg/kg dose upon peroral administration in 1 hr time interval; format: organism-based; parameters: dose 50 mg/kg, route oral; settings: po
# Acetylcholinesterase [17] = target: T3, Acetylcholinesterase; settings: 50 mg/kg
# [18] = target: T1, Amine oxidase [flavin-containing] B; assay: Compound was tested for inhibition of monoamine oxidase-B (MAO-B) at 50 mg/kg dose upon peroral administration in 4 hr time interval; format: organism-based; parameters: dose 50 mg/kg, route oral; settings: po
# Acetylcholinesterase [19] = target: T3, Acetylcholinesterase; settings: 50 mg/kg; remark: listed apart in the source
# [20] = target: T1, Amine oxidase [flavin-containing] B; assay: Compound was tested for inhibition of monoamine oxidase-B (MAO-B) at 50 mg/kg dose upon peroral administration in 48 hr time interval; format: organism-based; parameters: dose 50 mg/kg, route oral; settings: in vivo, po
# [21] = target: T2, Amine oxidase [flavin-containing] A; assay: Compound was tested for inhibition of monoamine oxidase-A (MAO-A) at 50 mg/kg dose upon peroral administration in 48 hr time interval; format: organism-based; parameters: dose 50 mg/kg, route oral; settings: po
# [22] = target: T1, Amine oxidase [flavin-containing] B; assay: Compound was tested for inhibition of monoamine oxidase-B (MAO-B) at 50 mg/kg dose upon peroral administration in 24 hr time interval; format: organism-based; parameters: dose 50 mg/kg, route oral; settings: po
# [23] = target: T2, Amine oxidase [flavin-containing] A; assay: Compound was tested for inhibition of monoamine oxidase-A (MAO-A) at 50 mg/kg dose upon peroral administration in 4 hr time interval; format: organism-based; parameters: dose 50 mg/kg, route oral; settings: po
# [24] = target: T2, Amine oxidase [flavin-containing] A; assay: Compound was tested for inhibition of monoamine oxidase-A (MAO-A) at 50 mg/kg dose upon peroral administration in 24 hr time interval; format: organism-based; parameters: dose 50 mg/kg, route oral; settings: po
# Acetylcholinesterase [25] = target: T3, Acetylcholinesterase; settings: 50 mg/kg; remark: listed apart in the source
# [26] = target: T1, Amine oxidase [flavin-containing] B; assay: Compound was tested for inhibition of monoamine oxidase-B (MAO-B) at 50 mg/kg dose upon peroral administration in 48 time interval; format: organism-based; parameters: dose 50 mg/kg, route oral; settings: po
# [27] = target: T1, Amine oxidase [flavin-containing] B; assay: Compound was tested for inhibition of monoamine oxidase-B (MAO-B) at 50 mg/kg dose upon peroral administration in 1 hr time interval; format: organism-based; parameters: dose 50 mg/kg, route oral; settings: po
# Acetylcholinesterase [28] = target: T3, Acetylcholinesterase; assay: Compound was tested for inhibition of acetylcholinesterase at […] dose upon peroral administration in 0.5 hr time interval
# Acetylcholinesterase [29] = target: T3, Acetylcholinesterase; assay: Compound was tested for inhibition of acetylcholinesterase at 50 mg/kg dose upon peroral administration in 4 hr time interval; format: organism-based; parameters: dose 50 mg/kg
# Acetylcholinesterase [30] = target: T3, Acetylcholinesterase; assay: Compound was tested for inhibition of acetylcholinesterase at 50 mg/kg dose upon peroral administration in 24 hr time interval; format: organism-based; parameters: dose 50 mg/kg
# [31] = target: T2, Amine oxidase [flavin-containing] A; assay: Compound was tested for inhibition of monoamine oxidase-A (MAO-A) at 50 mg/kg dose upon peroral administration in 48 time interval; format: organism-based; parameters: dose 50 mg/kg, route oral; settings: po
# [32] = target: T1, Amine oxidase [flavin-containing] B; assay: Compound was tested for inhibition of monoamine oxidase-B (MAO-B) at 50 mg/kg dose upon peroral administration in 0.5 hr time interval; format: organism-based; parameters: dose 50 mg/kg, route oral; settings: po
# Acetylcholinesterase [33] = target: T3, Acetylcholinesterase; assay: Compound was tested for inhibition of acetylcholinesterase at 50 mg/kg dose upon peroral administration in 1 hr time interval; format: organism-based; parameters: dose 50 mg/kg
# [34] = target: T2, Amine oxidase [flavin-containing] A; assay: Compound was tested for inhibition of monoamine oxidase-A (MAO-A) at 50 mg/kg dose upon peroral administration in 0.5 hr time interval; format: organism-based; parameters: dose 50 mg/kg, route oral; settings: po
SMILES,IC50 [1] [mM],IC50 [2] [µM],IC50 (Acetylcholinesterase [3]) [nM],other results
CC(C)/N=C1/CCc2c1n(C)c1ccccc21,> 1,30.8,,
C/N=C1/CCc2c1n(C)c1ccc(OC(=O)NC)cc21,> 1,13.6,3360,
CC/N=C1/CCc2c1n(C)c1ccc(OC(=O)NC)cc21,> 1,3.74,5680,
CCCCNC(=O)Oc1ccc2c(c1Br)c1c(n2C)/C(=N\C)CC1,0.175,0.75,3170,
CCC/N=C1/CCc2c1n(C)c1ccccc21,> 1,1.61,,
COc1cc(Br)c2oc(C3CCNCC3)cc2c1 [BROFAROMINE],0.0234,0.18,,inhibition at 10 mg/kg [4]: 29.6%; inhibition at 10 mg/kg [5]: 42.6%; inhibition at 10 mg/kg [6]: 22.2%; inhibition at 10 mg/kg [7]: 13.2%; inhibition at 10 mg/kg [8]: 64.2%; inhibition at 10 mg/kg [9]: 28.7%; inhibition at 10 mg/kg [10]: 18.3%; inhibition at 10 mg/kg [11]: 52.1%
CCCCCCCNC(=O)Oc1ccc2c(c1)[C@]1(C)CCN(C)[C@@H]1N2C [EPTASTIGMINE],,,9,inhibition (Acetylcholinesterase [12]): 20.8%; inhibition (Acetylcholinesterase [13]): 72.9%; inhibition (Acetylcholinesterase [14]): 33.2%; inhibition (Acetylcholinesterase [15]): 52.3%
C/N=C1/CCc2c1n(C)c1ccccc21,0.317,0.92,,
C/N=C1/CCc2c1n(C)c1ccc(OC(=O)NCc3ccccc3)c(Br)c21,> 1,5.47,4190,
CCC/N=C1/CCc2c1n(C)c1ccc(OC(=O)NC)cc21,> 1,25.4,3840,
C/N=C1/CCc2c1n(C)c1cc(Cl)c(OC(=O)NC)cc21,0.395,22.5,670,
Cn1c2c(c3ccccc31)CC/C2=N/Cc1ccncc1,> 1,113,,
CCCn1c2c(c3c(Br)c(OC(=O)NC)ccc31)CC/C2=N/CC,> 1,> 1000,230,
C/N=C1/CCc2c1n(C)c1ccc(OC(=O)NC)c(Br)c21,> 1,0.65,180,
CC/N=C1/CCc2c1n(C)c1ccccc21,0.0776,2.12,,
CNC(=O)Oc1ccc2c(c1)c1c(n2C)/C(=N\CCc2ccccc2)CC1,> 1,> 1000,160,
C/N=C1/CCc2c1n(C)c1ccc(OC(=O)N(C)C)c(Br)c21,0.051,0.54,60,inhibition at 50 mg/kg [16]: 44%; inhibition (Acetylcholinesterase [17]): inactive; inhibition at 50 mg/kg [18]: 25.9%; inhibition (Acetylcholinesterase [19]): inactive; Inhibition [20]: 10.1% and 20.4%; inhibition at 50 mg/kg [21]: 22.3%; inhibition at 50 mg/kg [22]: 6.6%; inhibition at 50 mg/kg [23]: 58.8%; inhibition at 50 mg/kg [24]: 23.2%; inhibition (Acetylcholinesterase [25]): inactive
CC/N=C1/CCc2c1n(C)c1ccc(OC(=O)NC)c(Br)c21,> 1,0.21,140,inhibition at 50 mg/kg [26]: 9.3%; inhibition at 50 mg/kg [16]: 33.3%; inhibition at 50 mg/kg [27]: 17.2%; inhibition at 50 mg/kg [18]: 25.9%; inhibition (Acetylcholinesterase [28]): 15.1%; inhibition (Acetylcholinesterase [29]): 30.9%; inhibition (Acetylcholinesterase [30]): 0.2%; inhibition at 50 mg/kg [31]: 11.7%; inhibition at 50 mg/kg [32]: 21.5%; inhibition at 50 mg/kg [22]: 17.8%; inhibition at 50 mg/kg [23]: 48.9%; inhibition (Acetylcholinesterase [33]): 19.4%; inhibition at 50 mg/kg [24]: 13.1%; inhibition at 50 mg/kg [34]: 28.2%
CC/N=C1/CCc2c1n(C)c1ccc(OC(=O)NC)c(Cl)c21,> 1,0.1,160,
C/N=C1/CCc2c1n(C)c1ccc(OC(=O)NC)c(Cl)c21,> 1,1.36,230,
